{
  "source": "patent US9187468B2",
  "about": "“Topical ocular analgesic agents” (Novartis AG, priority 2013, dated 2015)",
  "key": {"[1]": {"test_system": "formalin-induced blinking in rats", "assay": "Formalin blink test (topical ocular analgesia)", "type": "in vivo", "conditions": "rat", "method": "Formalin was prepared at 0.1% final in 0.9% saline from a stock of 10% neutral buffered formalin (Sigma-Aldrich, St. Louis, Mo.). […] The structure of Compound A is.\nAll compounds were formulated in a 10% hydroxypropyl-β-cyclodextrin (HPβCD) 1×PBS vehicle. Compounds were prepared as 1% stock solutions in absolute ethanol. An appropriate amount of the stock solution was transferred to a glass vial from which the solvent was evaporated, then the compound was re-suspended in appropriate volumes of vehicle and ball-milled overnight at 4° C. All compounds were tested at 0.01%, 0.1%, 0.3%, and 1% w/v, unless otherwise noted. Alcaine® (Alcon Laboratories, Fort Worth, Tex.) was used as a reference compound.\nRats were dosed with 5 μL, of formalin vehicle (0.9% sterile saline) in OS eye. After a 5-second acclimation period, blinks were counted for one minute. Test compound or vehicle was dosed (5 μL) on OD eye. At 5 minutes after test compound treatment (unless otherwise noted), 0.1% formalin was dosed in the OD eye. Blinks were counted in the same manner as the OS eye.\nThe efficacy data for these compounds are plotted in FIGS. 1, 3, 4, and 5, with % inhibition of formalin-induced blink rate indicated above the bar for each tested concentration."}, "[2]": {"test_system": "nylon fiber ocular surface touching-induced blinking in rats", "assay": "Cochet-Bonnet esthesiometry test (anesthetic activity)", "type": "in vivo", "conditions": "rat, topical ocular; for anesthesia in Cochet-Bonnet esthesiometry test: concentration range that afforded efficacious analgesia in the formalin blink test", "method": "Cochet-Bonnet Esthesiometry Test\nFor the Cochet-Bonnet esthesiometry test that measures anesthetic activity, whiskers were trimmed from test animals or vehicle animals. OD eye of animal was dosed with 5 μL of test compound or vehicle. The animal was restrained in a clear plastic cone (DecapiCone®, Alcon Laboratories, Fort Worth, Tex.) which was trimmed as necessary to allow access to the OD eye. Five minutes after application of test compound, a Cochet-Bonnet esthesiometer, with a nylon monofilament diameter of 0.12 mm and length of 40 mm (0.8 g/mm^2), was applied perpendicularly to the central cornea of the OD eye 10 times. This test was performed three times on each animal within 2 minutes. Data were expressed as the mean number of blinks elicited from 10 stimuli."}, "[3]": {"test_system": "rat spinal ligation model of neuropathic pain", "conditions": "orally dosed at 10 mg/kg, comparators at 3-10 times higher doses; cited from earlier work"}},
  "data": [
    {"molecule": "CC(=O)Nc1cccc(Nc2ncnc(N3CCC(OCc4ccc(OC(F)(F)F)cc4)CC3)n2)c1C", "note": "[Compound 1]", "values": [
      {"measurement": "maximum efficacy as topical ocular analgesic compared to Compounds A and B", "setting": "[1]; FIG. 1 vs FIGS. 3 and 4", "value": "more efficacious"},
      {"measurement": "potency as topical ocular analgesic compared to Compounds A and B", "setting": "[1]; FIG. 1 vs FIGS. 3 and 4", "value": "significantly more potent"},
      {"measurement": "% reduction of formalin-induced blink rate vs vehicle", "setting": "[1]; drug concentrations ≧0.05% w/v (tested 0.01%-0.3% w/v)", "value": "> 50", "unit": "%"},
      {"measurement": "anesthesia in Cochet-Bonnet esthesiometry test", "setting": "[2]", "value": "did not elicit observable anesthesia"},
      {"measurement": "anesthetic effect (touch-induced blinking) compared to vehicle", "setting": "[2]; drug concentrations up to 0.3% w/v (0.05-0.3%)", "value": "did not elicit a statistically significant anesthetic effect"}
    ]},
    {"molecule": "CCCCCN1C(=O)C2(COc3cc4c(cc32)OCO4)c2ccccc21", "note": "(stereo not drawn) [Compound A, 1′-pentyl-6H-spiro[[1,3]dioxolo[4,5-f]benzofuran-7,3′-indolin]-2′-one]", "values": [
      {"measurement": "% reduction of formalin-induced blink rate", "setting": "[1]; 0.1% w/v dose", "value": 27, "unit": "%"}
    ]},
    {"molecule": "NC(=O)c1nc(-c2cccc(-c3ccccc3OC(F)(F)F)c2)cs1", "note": "[Compound B, 4-(2′-(trifluoromethoxy)-[1,1′-biphenyl]-3-yl)thiazole-2-carboxamide]", "values": [
      {"measurement": "% reduction of formalin-induced blink rate", "setting": "[1]; 0.01% w/v dose", "value": "no effect"},
      {"measurement": "% reduction of formalin-induced blink rate", "setting": "[1]; 0.1% w/v dose", "value": "no effect"},
      {"measurement": "% reduction of formalin-induced blink rate", "setting": "[1]; 0.3% w/v dose", "value": "~40", "unit": "%"},
      {"measurement": "% reduction of formalin-induced blink rate", "setting": "[1]; 1% w/v dose", "value": "~40", "unit": "%"},
      {"measurement": "therapeutic efficacy vs mexiletene, lamotrigene and carbamazepine", "setting": "[3]", "value": "significantly more therapeutically efficacious"}
    ]},
    {"molecule": "Fc1cccc(Cn2ccc3c(OC4CCN(Cc5cscn5)CC4)ncnc32)c1F", "note": "[Compound C]", "values": [
      {"measurement": "dose dependence of analgesic efficacy", "setting": "[1]; 0.01-0.2% w/v", "value": "dose-related increase in efficacy"},
      {"measurement": "maximum efficacy (% inhibition of formalin-induced blink rate)", "setting": "[1]; top tested dose of 0.01-0.2% w/v range", "value": 61, "unit": "%"},
      {"measurement": "anesthetic effect (touch-induced blinking)", "setting": "[2]; 0.1% and 0.2% doses", "value": "elicited significant anesthesia"},
      {"measurement": "anesthesia in Cochet-Bonnet esthesiometry test", "setting": "[2]", "value": "profound anesthesia"}
    ]}
  ]
}
